Measurements reported in patent publication US20060293264A1, “STAT3 decoy oligonucleotides and uses therefor” (priority 2004, published 2006).

Assays:
STAT1 = molecular target: T1, STAT1 (Homo sapiens, UniProt P42224); assay: EMSA of STAT1 binding to the STAT3 decoy, PCI-15B nuclear extracts; settings: supershift
T1 construct: Nuclear protein extracts of PCI-15B cells, prepared according to standard methods, were used for the EMSA; endogenous in cells; host or cells: PCI-15B cells (nuclear extract)
T1 sequence (P42224 2-750 limits assumed): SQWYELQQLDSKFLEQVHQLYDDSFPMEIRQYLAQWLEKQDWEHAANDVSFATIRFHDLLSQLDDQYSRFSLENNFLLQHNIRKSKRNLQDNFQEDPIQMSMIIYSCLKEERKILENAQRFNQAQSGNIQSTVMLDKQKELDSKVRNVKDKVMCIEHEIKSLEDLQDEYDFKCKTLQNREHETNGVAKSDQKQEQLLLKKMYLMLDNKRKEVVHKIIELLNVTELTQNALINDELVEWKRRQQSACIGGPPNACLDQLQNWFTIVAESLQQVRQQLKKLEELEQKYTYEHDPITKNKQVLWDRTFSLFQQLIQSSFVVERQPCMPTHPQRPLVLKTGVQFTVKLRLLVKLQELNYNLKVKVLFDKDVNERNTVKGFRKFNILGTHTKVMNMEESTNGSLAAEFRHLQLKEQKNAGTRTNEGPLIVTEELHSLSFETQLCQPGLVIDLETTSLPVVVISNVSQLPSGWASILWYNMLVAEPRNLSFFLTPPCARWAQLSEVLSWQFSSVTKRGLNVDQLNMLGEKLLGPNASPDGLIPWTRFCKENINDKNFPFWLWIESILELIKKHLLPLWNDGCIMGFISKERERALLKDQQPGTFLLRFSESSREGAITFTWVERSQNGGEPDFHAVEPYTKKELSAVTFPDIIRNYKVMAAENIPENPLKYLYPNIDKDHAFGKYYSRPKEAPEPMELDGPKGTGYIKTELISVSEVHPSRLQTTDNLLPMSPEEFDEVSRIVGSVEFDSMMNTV
Method: FIG. 10 depicts binding of STAT 1 to the STAT3 decoy in an electrophoretic mobility shift assay (EMSA). Nuclear protein extracts of PCI-15B cells, prepared according to standard methods, were used for the EMSA. The specificity of STAT1 or STAT3 binding to the STAT3 decoy was determined by supershifting with STAT1- or STAT3-specific antibodies, or both. The experiment has been repeated more than 3 times.

GAS-responsive element = assay: pGAS-Luc reporter gene assay in UM-22B SCCHN cells; assay type: cell-based; settings: UM-22B pGAS-Luc, 2 μg transfected, 24 hrs, IFN-γ stimulation
Method: FIG. 9 depicts the inhibition of reporter gene expression from GAS-responsive element in SCCHN cells. An SCCHN cell line, UM-22B, was used to generate a stable cell line expressing a pGAS-Luc reporter gene (pGAS-Luc plasmid carrying 4 repeats of GAS sequence: [NT] ID NO: 31), was obtained from Stratagene, Catalog number: 219091-51). The cells were transfected with 2 μg of the STAT3 decoy or the control mutant decoy. At 24 hrs after transfection, luciferase activity was measured and normalized to the total amount of protein.

[1] = test system: SCCHN xenografts (1483 cells); assay: In vivo apoptosis determination by TUNEL in harvested xenografts; parameters: species or system athymic nude mice; settings: xenografts harvested after 25 treatments; p=0.00038
Method: In vivo apoptosis determinations. Detection and quantitation of apoptosis was performed by the TUNEL reaction, using the In Situ Cell Death Detection Kit, POD (Roche Diagnostics GmbH, Roche Applied Science, Sandhofer Strasse 116, D-68305 Mannheim, Germany). Cryostat sections were fixed in 4% paraformaldehyde in PBS for 30 min. After washing with PBS for 30 min, the sections were incubated in permeabilization solution (0.1% Triton X-100, 0.1% sodium citrate) for 2 min on ice. The sections were washed twice with PBS before the samples were incubated for 60 min at 37° C. with TUNEL reaction mixture to label DNA strand breaks with Fluorescein-dUTP. After washing three times with PBS, the samples were incubated with Converter-POD for 30 min at 37° C., washed again with PBS, and finally exposed to 0.025% 3,3′-diaminobenzidine (DAB)/0.01% H2O2 in Tris-HCl buffer (pH 7.4) for 10 min. The number of apoptotic cells per high-power field (HPF) was counted. For each treatment, five samples were evaluated, and 5-10 fields of view were quantified on each section.
In vivo tumor xenograft studies. Female athymic nude mice nu/nu (4-6 weeks old; 20±2 g; Harlan-Sprague-Dawley) were implanted with 1×10^6 1483 cells into the right and left flank with a 26-gauge needle/1 ml tuberculin syringe, resulting in two tumors per mouse. […]

“STAT3 decoy (sense CATTTCCCGTAAATC; antisense GATTTACGGGAAATG; phosphorothioate modified, further chemistry not given here; listed as Homo sapiens)” was tested, and the “binding to STAT1” value (STAT1) was “able to bind”, the “reporter gene expression from a GAS-responsive element (STAT1 reporter activity)” value (GAS-responsive element) was “inhibit” and the “increase in apoptosis (TUNEL) compared with mutant control decoy” value [1] was 3.25 fold.
